Literature values in patent US20230149425A1, “PROCESS AND THERAPEUTIC COMPOSITION FOR TREATING AND PREVENTING SEVERE INJECTION SITE REACTIONS” (Brii Biosciences, Inc., priority 2021, published 2023).

How the values were obtained:
[1] = lactating women
[2] = oral

For `CC(=O)[C@H]1CC[C@H]2[C@@H]3CC[C@H]4C[C@H](O)CC[C@]4(C)[C@H]3CC[C@]12C` [brexanolone, 5α-pregnane-3α-ol-20-one], the “concentrations in milk and plasma” value [1] is given as “low” and the “risk to breastfed infants” value [1] is given as “low risk”.

In the case of `C[C@]12CCC(=O)C=C1CC[C@@H]1[C@@H]2C(=O)C[C@@]2(C)[C@H]1CC[C@]2(O)C(=O)CO` [cortisone], the “safety and pain relief of injection in lactating women” value is listed as “safe and efficient for pain relief”.

In the case of `C[C@@]1(O)CC[C@H]2[C@H](CC[C@@H]3[C@@H]2CC[C@]2(C)[C@@H](C(=O)Cn4cc(C#N)cn4)CC[C@@H]32)C1` [SAGE-217], the “reduction of depressive symptoms in clinical trials” value ([2]; administration for 14 days) is given as “mixed results” and the “adverse events versus placebo” value ([2]; clinical trials) is given as “more adverse events than the placebo”.
